Several values for one entry are separate records, joined by “and”; a condition that tells them apart may be missing. Equal entries are not always repeated. Inconclusive results and toxic doses are left out.
System: BDF1 mice, P388 leukemia ip, median survival T/C
Assay: NCI In Vivo Anticancer Drug Screen. Data for tumor model P388 Leukemia (intraperitoneal) in B6D2F1 (BDF1) mice
Conditions: endpoint: median survival time, higher = longer survival
Procedure, shortened: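 Mice carrying the transplantable tumour receive compound or vehicle. Survival is followed in each arm, and the treated measure is divided by the vehicle measure.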

[1] = dose: 100.0 mg/kg/injection, schedule: Q01DX009 (ip), vehicle: saline
[2] = dose: 100.0 mg/kg/injection, schedule: Q04DX003 (ip), vehicle: saline
[3] = dose: 25.0 mg/kg/injection, schedule: Q04DX003 (ip), vehicle: saline with Tween-80
[4] = dose: 50.0 mg/kg/injection, schedule: Q01DX009 (ip), vehicle: saline with Tween-80
[5] = dose: 100.0 mg/kg/injection, schedule: Q04DX003 (ip), vehicle: saline with Tween-80
[6] = dose: 100.0 mg/kg/injection, schedule: Q01DX009 (ip), vehicle: saline with Tween-80
[7] = dose: 200.0 mg/kg/injection, schedule: Q01DX009 (ip), vehicle: saline with Tween-80
[8] = dose: 12.5 mg/kg/injection, schedule: Q01DX009 (ip), vehicle: saline

For `c1cnc2[nH]cnc2n1`, the T/C [1] was 95 % of control, the T/C [2] was 100 % of control and the T/C (dose: 200.0 mg/kg/injection, schedule: Q01DX009 (ip), vehicle: saline) was 95 % of control. For the same compound, the T/C (dose: 200.0 mg/kg/injection, schedule: Q04DX003 (ip), vehicle: saline) was 100 % of control and the T/C (dose: 400.0 mg/kg/injection, schedule: Q04DX003 (ip), vehicle: saline) was 90 % of control.
With `CC1(C)CN(Cc2ccccc2)C(C)(C)CN1N` the T/C (dose: 6.25 mg/kg/injection, schedule: Q01DX009 (ip), vehicle: saline with Tween-80) was 97 % of control, the T/C (dose: 12.5 mg/kg/injection, schedule: Q01DX009 (ip), vehicle: saline with Tween-80) was 101 % of control and the T/C (dose: 12.5 mg/kg/injection, schedule: Q04DX003 (ip), vehicle: saline with Tween-80) was 111 % of control. The T/C (dose: 25.0 mg/kg/injection, schedule: Q01DX009 (ip), vehicle: saline with Tween-80) was 97 % of control, the T/C [3] was 107 % of control and the T/C [4] was 115 % of control. The T/C (dose: 50.0 mg/kg/injection, schedule: Q04DX003 (ip), vehicle: saline with Tween-80) was 107 % of control and the T/C [5] was 111 % of control.
In the case of `Cc1cc(N(CCCl)CCCl)ccc1N=Nc1ccccc1C(=O)[O-].Cc1cc(N(CCCl)CCCl)ccc1N=Nc1ccccc1C(=O)[O-].[Cu+2]`, the T/C (dose: 16.5 mg/kg/injection, schedule: Q04DX003 (ip), vehicle: saline with Tween-80) was 240 % of control and 105 % of control, the T/C [3] was 263 % of control and 165 % of control and the T/C (dose: 37.5 mg/kg/injection, schedule: Q04DX003 (ip), vehicle: saline with Tween-80) was 227 % of control.
`Cc1[nH]nc(-c2ccon2)c1N` was tested, and the T/C [4] was 115 % of control, the T/C [6] was 119 % of control and the T/C [7] was 113 % of control.
With `Nc1nc(N)c2cc(S(=O)(=O)c3ccccc3)ccc2n1` the T/C [4] was 92 % of control.
With `CCN(/C=C/C=C(C#N)C#N)CC` the T/C [4] was 109 % of control and the T/C [6] was 88 % of control.
`CCS(=O)(=O)OCCCCOS(=O)(=O)CC` was tested, and the T/C [6] was 108 % of control.
With `COc1ccc(C(=O)C(Br)C(Br)C(=O)O)cc1` (stereo unspecified) the T/C [8] was 100 % of control, the T/C (dose: 25.0 mg/kg/injection, schedule: Q01DX009 (ip), vehicle: saline) was 95 % of control and 104 % of control and the T/C (dose: 25.0 mg/kg/injection, schedule: Q04DX003 (ip), vehicle: saline) was 100 % of control. The T/C (dose: 50.0 mg/kg/injection, schedule: Q01DX009 (ip), vehicle: saline) was 95 % of control and 112 % of control, the T/C (dose: 50.0 mg/kg/injection, schedule: Q04DX003 (ip), vehicle: saline) was 109 % of control and the T/C [1] was 105 % of control. For the same compound, the T/C [2] was 86 % of control.
`C(=Nc1ccccc1)c1ccccc1C=Nc1ccccc1` was tested, and the T/C [5] was 104 % of control, the T/C (dose: 200.0 mg/kg/injection, schedule: Q04DX003 (ip), vehicle: saline with Tween-80) was 109 % of control and the T/C (dose: 400.0 mg/kg/injection, schedule: Q04DX003 (ip), vehicle: saline with Tween-80) was 100 % of control.
For `CC(=O)c1ccc[n+](Cc2c(Cl)cccc2Cl)c1`, the T/C (dose: 3.13 mg/kg/injection, schedule: Q01DX009 (ip), vehicle: saline) was 93 % of control, the T/C (dose: 6.25 mg/kg/injection, schedule: Q01DX009 (ip), vehicle: saline) was 92 % of control and the T/C [8] was 92 % of control.
`O=C1CSC(C2CCCCC2)N1c1nccs1` (stereo unspecified) was tested, and the T/C [4] was 110 % of control, the T/C [6] was 112 % of control and the T/C [7] was 110 % of control.
For `CC(C)C1=C(O)C2=C(C(=O)C1=O)C1(C)CCCC(C)(C)C1CC2O` (stereo unspecified), the T/C (dose: 2.0 mg/kg/injection, schedule: Q01DX010 (ip), vehicle: carboxymethylcellulose (CMC)) was 100 % of control, the T/C (dose: 5.0 mg/kg/injection, schedule: Q01DX010 (ip), vehicle: carboxymethylcellulose (CMC)) was 95 % of control and the T/C (dose: 10.0 mg/kg/injection, schedule: Q01DX010 (ip), vehicle: carboxymethylcellulose (CMC)) was 90 % of control. For the same compound, the T/C (dose: 20.0 mg/kg/injection, schedule: Q01DX010 (ip), vehicle: carboxymethylcellulose (CMC)) was 105 % of control.
With `CC(=O)Nc1cc(C)c(C)cc1[N+](=O)[O-]` the T/C (dose: 100.0 mg/kg/injection, schedule: Q01DX009 (ip), vehicle: Klucel (hydroxypropylcellulose) (HPC)) was 95 % of control, the T/C (dose: 100.0 mg/kg/injection, schedule: Q04DX003 (ip), vehicle: Klucel (hydroxypropylcellulose) (HPC)) was 104 % of control and the T/C (dose: 200.0 mg/kg/injection, schedule: Q01DX009 (ip), vehicle: Klucel (hydroxypropylcellulose) (HPC)) was 109 % of control. The T/C (dose: 200.0 mg/kg/injection, schedule: Q04DX003 (ip), vehicle: Klucel (hydroxypropylcellulose) (HPC)) was 90 % of control, the T/C (dose: 400.0 mg/kg/injection, schedule: Q01DX009 (ip), vehicle: Klucel (hydroxypropylcellulose) (HPC)) was 95 % of control and the T/C (dose: 400.0 mg/kg/injection, schedule: Q04DX003 (ip), vehicle: Klucel (hydroxypropylcellulose) (HPC)) was 86 % of control.
For `CCCCCC(O)CCCCC`, the T/C [6] was 104 % of control and the T/C [7] was 95 % of control.

Source: PubChem BioAssay AID328 (DTP/NCI, 2004)
